Some results are limits rather than exact numbers.

For this assay, the target named is T1, Recombinant human LOXL2 (lysyl oxidase like 2) (Homo sapiens, UniProt Q9Y4K0).
T1 construct: purchased R&D systems
T1 sequence (Q9Y4K0 26-774): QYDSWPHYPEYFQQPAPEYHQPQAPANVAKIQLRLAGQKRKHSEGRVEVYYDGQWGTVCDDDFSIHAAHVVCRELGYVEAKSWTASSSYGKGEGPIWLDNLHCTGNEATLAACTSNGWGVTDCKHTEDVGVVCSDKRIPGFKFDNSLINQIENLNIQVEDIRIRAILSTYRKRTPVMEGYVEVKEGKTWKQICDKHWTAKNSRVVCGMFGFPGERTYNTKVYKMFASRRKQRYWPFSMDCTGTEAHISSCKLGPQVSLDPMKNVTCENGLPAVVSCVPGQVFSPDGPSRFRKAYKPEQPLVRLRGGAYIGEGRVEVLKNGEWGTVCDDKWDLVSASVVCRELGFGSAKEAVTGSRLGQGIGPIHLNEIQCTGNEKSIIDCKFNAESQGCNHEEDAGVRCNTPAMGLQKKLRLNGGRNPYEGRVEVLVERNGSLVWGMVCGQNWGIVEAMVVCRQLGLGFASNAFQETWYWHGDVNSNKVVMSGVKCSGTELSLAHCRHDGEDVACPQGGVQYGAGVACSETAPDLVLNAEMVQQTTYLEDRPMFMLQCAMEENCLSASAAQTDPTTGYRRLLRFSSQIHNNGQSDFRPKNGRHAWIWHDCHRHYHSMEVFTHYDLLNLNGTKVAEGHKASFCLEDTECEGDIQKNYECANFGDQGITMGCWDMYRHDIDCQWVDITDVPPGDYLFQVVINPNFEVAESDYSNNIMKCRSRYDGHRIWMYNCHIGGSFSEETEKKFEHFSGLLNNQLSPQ
The assay can be described thus: LOXL2 inhibition assay, fluorometric (cadaverine / HRP / Amplex Red). It counts as biochemical. Particulars: recombinant human LOXL2 130 nM; 30 min preincubation at 37° C.; 2.5 mM cadaverine; read-out: Activity Range LOXL2. As to the method: The ability of compounds to inhibit one or more of the lysyl oxidases LOXL2 and/or LOXL3 was determined using a fluorometric assay. This assay measures the activity of lysyl oxidases by coupling the reaction with horseradish peroxidase-catalyzed […]. The activity assay protocol uses cadaverine as substrate that releases hydrogen peroxide upon transformation by the specific LOX family enzyme present in the sample. Hydrogen peroxide is in turn detected using a red fluorescence substrate for HRP-coupled reactions (Amplex Red Enzyme Assays, Thermo Scientific Fisher). This leads to increase in fluorescence that can be easily detected at Ex/Em=540/590 nm in a fluorescence microplate reader.
Recombinant human LOXL2 (lysyl oxidase like 2) and recombinant human LOXL3 (lysyl oxidase like 3) were purchased from R&D systems and assays were performed in 1.2 M urea, 50 mM sodium borate buffer pH 8.0, and 10 mM CaCl.
5 μl of freshly prepared reaction buffer were delivered to reaction wells. Compounds were resuspended in 100% DMSO at 10 mM and delivered into buffer using acoustic technology (Echo550; nanoliter range). A 3× solution of LOXL2 or LOXL3 in reaction buffer was prepared (“enzyme solution”) and 5 μL of enzyme solution was added into the reaction wells. Buffer only was added to column 1 for no protein control. Reactions were incubated for 30 minutes at 37° C. A 3× mixture of cadaverine, Amplex Red, and HRP (“Substrate/Detection Mix) was prepared and subsequently 5 μL of the mixture added to each reaction well. Progress of reactions was monitored for 60 minutes at 37° C. using Clariostar plate reader (ex 530-12, ems 600-40). For all activity assays, pan-LOX inhibitor CCT365623 (Tang et al, 2017) and LOXL2/LOXL3 inhibitor PAT-1251 (PharmaKea) were included as standards.
For the data analysis, the slope of the linear portion of the progress curve was calculated using Clariostar software. Typical analysis interval was between 8-30 min, but varied between experiments. The background-subtracted signals (No protein wells are considered as background) were converted to % activity relative to DMSO controls. Data was analyzed using GraphPad Prism 4 with “sigmoidal dose-response (variable slope)”; 4 parameters with Hill Slope. Constraints: Bottom=Constant equal to 0. Top=Must be less than 120.
In the case of `NCc1ccc(S(=O)(=O)C[C@@H]2C[C@H](c3ccccc3)CN(S(=O)(=O)N3CCOCC3)C2)s1` (racemic) [Example 222, cis-(5-(((1-(Morpholinosulfonyl)-5-phenylpiperidin-3-yl)methyl)sulfonyl)thiophen-2-yl)methanamine 2,2,2-trifluoroacetate], the IC50 was at most 500 nM.
As to `NCc1cccc(OC[C@H]2C[C@H](c3ccccc3)CN(S(=O)(=O)N3CCOCC3)C2)c1` (relative stereo) [Example 221T, trans-(3-((1-(Morpholinosulfonyl)-5-phenylpiperidin-3-yl)methoxy)phenyl)methanamine 2,2,2-trifluoroacetate], the IC50 is at most 500 nM.
`NCc1ccnc(OC[C@@H]2C[C@H](C3CCCCC3)CN(S(=O)(=O)N3CCOCC3)C2)c1` (relative stereo) [Example 231, cis-(2-((5-Cyclohexyl-1-(morpholinosulfonyl)piperidin-3-yl)methoxy)pyridin-4-yl)methanamine 2,2,2-trifluoroacetate]: the IC50 is at most 500 nM.
As for `NCc1ccnc(OC[C@@H]2C[C@H](c3ccccc3F)CN2S(=O)(=O)N2CCOCC2)c1` (racemic) [Example 211, cis-(2-((4-(2-Fluorophenyl)-1-(morpholinosulfonyl)pyrrolidin-2-yl)methoxy)pyridin-4-yl)methanamine; trifluoroacetic acid], the IC50 is at most 500 nM.
In the case of `NCc1ccnc(S(=O)(=O)C[C@@H]2C[C@H](C3CCCCC3)CN(S(=O)(=O)N3CCOCC3)C2)c1` (relative stereo) [Example 230, cis-(2-(((5-Cyclohexyl-1-(morpholinosulfony1)piperidin-3-yl)methyl)sulfonyl)pyridin-4-yl)methanamine 2,2,2-trifluoroacetate], the IC50 was at most 500 nM.
Take `NCc1ccnc(S(=O)(=O)C[C@@H]2C[C@H](c3ccccc3)CN(S(=O)(=O)N3CCOCC3)C2)c1` (racemic) [Example 219, cis-(2-(((1-(Morpholinosulfonyl)-5-phenylpiperidin-3-yl)methyl)sulfonyl)pyridin-4-yl)methanamine 2,2,2-trifluoroacetate]: the IC50 was at most 500 nM.
Regarding `NCc1ccnc(OC[C@H]2C[C@H](c3ccccc3)CN(S(=O)(=O)N3CCOCC3)C2)c1` (relative stereo) [Example 220T, trans-(2-((1-(Morpholinosulfonyl)-5-phenylpiperidin-3-yl)methoxy)pyridin-4-yl)methanamine 2,2,2-trifluoroacetate], the IC50 fell in the range of 500 to 1000 nM.
For `NCc1ccnc(S(=O)(=O)C[C@H]2C[C@H](C3CCCCC3)CN(S(=O)(=O)N3CCOCC3)C2)c1` (relative stereo) [Example 230T, trans-(2-(((5-Cyclohexyl-1-(morpholinosulfonyl)piperidin-3-yl)methyl)sulfonyl)pyridin-4-yl)methanamine 2,2,2-trifluoroacetate], the IC50 is at most 500 nM.
Take `NCc1ccc(S(=O)(=O)C[C@@H]2C[C@H](c3ccccc3F)CN2S(=O)(=O)N2CCS(=O)(=O)CC2)s1` (racemic) [Example 209, cis-4-((2-(((5-(Aminomethyl)thiophen-2-yl)sulfonyl)methyl)-4-(2-fluorophenyl)pyrrolidin-1-yl)sulfonyl)thiomorpholine 1,1-dioxide 2,2,2-trifluoroacetate]: the IC50 was at most 500 nM.
Take `NCc1cccc(OC[C@@H]2C[C@H](c3ccccc3)CN(S(=O)(=O)N3CCOCC3)C2)c1` (racemic) [Example 221, cis-(3-((1-(Morpholinosulfonyl)-5-phenylpiperidin-3-yl)methoxy)phenyl)methanamine 2,2,2-trifluoroacetate]: the IC50 is at most 500 nM.
With `NCc1ccc(S(=O)(=O)C[C@H]2C[C@H](c3ccccc3)CN(S(=O)(=O)N3CCOCC3)C2)s1` (relative stereo) [Example 222T, trans-(5-(((1-(Morpholinosulfonyl)-5-phenylpiperidin-3-yl)methyl)sulfonyl)thiophen-2-yl)methanamine 2,2,2-trifluoroacetate], the IC50 is at most 500 nM.

Values taken from US12016864B2, “LOX enzyme inhibiting methods and compositions” (ANOVIA BIOSCIENCES, INC., priority 2021, dated 2024).
